Assay: molar heat capacity at saturation pressure

CCCCn1cc[n+](C)c1.Cc1ccc(S(=O)(=O)[O-])cc1 [1-butyl-3-methylimidazolium tosylate]
molar heat capacity [J/K/mol]
Details | Crystal 1 | Metastable crystal
205.31 K | – | 319.1
205.46 K | 296.26 | –
207.12 K | 298.09 | –
207.15 K | 298.12 | –
207.23 K | – | 320.66
207.42 K | 298.43 | –
209.08 K | 300.36 | –
209.12 K | 300.45 | –
209.16 K | – | 322.21
209.38 K | 300.6 | –
211.04 K | 302.62 | –
211.08 K | – | 323.45
211.09 K | 302.68 | –
211.34 K | 302.99 | –
213 K | 304.79 | 325
213.05 K | 304.92 | –
213.31 K | 305.26 | –
214.92 K | – | 326.24
214.96 K | 307.15 | –
215.01 K | 307.18 | –
215.27 K | 307.65 | –
216.84 K | – | 328.11
216.91 K | 309.57 | –
216.97 K | 309.61 | –
217.22 K | 309.92 | –
218.76 K | – | 329.66
218.87 K | 311.96 | –
218.93 K | 311.96 | –
219.18 K | 312.59 | –
220.68 K | – | 331.83
220.82 K | 314.45 | –
220.88 K | 314.45 | –
221.13 K | 314.76 | –
222.6 K | – | 333.69
222.77 K | 317.86 | –
222.83 K | 317.24 | –
223.07 K | 317.55 | –
224.51 K | – | 336.8
224.72 K | 321.28 | –
224.77 K | 321.9 | –
225.01 K | 321.59 | –
226.41 K | – | 340.21
226.65 K | 326.86 | –
226.7 K | 326.55 | –
226.94 K | 328.11 | –
228.3 K | – | 347.04
228.56 K | 332.14 | –
228.61 K | 331.83 | –
228.85 K | 333.69 | –
230.18 K | – | 352.94
230.47 K | 336.18 | –
230.52 K | 335.56 | –
230.75 K | 336.8 | –
232.06 K | – | 355.11
232.37 K | 339.9 | –
232.43 K | 338.97 | –
232.65 K | 340.21 | –
233.94 K | – | 356.97
234.27 K | 341.76 | –
234.33 K | 341.76 | –
234.55 K | 342.7 | –
235.82 K | – | 358.22
236.17 K | 343.94 | –
236.24 K | 343.01 | –
236.45 K | 344.25 | –
237.7 K | – | 359.46
238.07 K | 346.11 | –
238.14 K | 345.18 | –
238.35 K | 346.42 | –
239.58 K | – | 361.01
239.97 K | 348.28 | –
240.04 K | 347.35 | –
240.25 K | 348.9 | –
241.45 K | – | 362.87
241.87 K | 350.46 | –
241.94 K | 349.52 | –
242.14 K | 350.77 | –
243.33 K | – | 364.42
243.76 K | 352.32 | –
243.83 K | 351.7 | –
244.04 K | 352.94 | –
245.21 K | – | 365.98
245.66 K | 354.49 | –
245.73 K | 353.87 | –
245.93 K | 355.11 | –
247.08 K | – | 367.84
247.55 K | 356.97 | –
247.62 K | 356.04 | –
247.82 K | 357.29 | –
248.96 K | – | 369.39
249.44 K | 359.15 | –
249.51 K | 358.53 | –
249.71 K | 359.46 | –
250.83 K | – | 371.25
251.33 K | 361.32 | –
251.4 K | 360.39 | –
251.59 K | 361.63 | –
252.7 K | – | 372.81
253.22 K | 363.49 | –
253.29 K | 362.87 | –
253.47 K | 363.8 | –
254.58 K | – | 374.67
255.11 K | 365.67 | –
255.17 K | 364.74 | –
255.35 K | 365.98 | –
256.45 K | – | 376.53
256.99 K | 367.84 | –
257.06 K | 367.22 | –
257.23 K | 368.15 | –
258.32 K | – | 378.39
258.88 K | 370.01 | –
258.94 K | 369.08 | –
259.11 K | 370.32 | –
260.2 K | – | 380.26
260.77 K | 372.19 | –
260.82 K | 371.56 | –
261 K | 372.5 | –
262.07 K | – | 381.81
262.65 K | 374.36 | –
262.71 K | 373.43 | –
262.87 K | 374.67 | –
263.94 K | – | 383.36
264.53 K | 376.22 | –
264.59 K | 375.6 | –
264.75 K | 376.53 | –
265.82 K | – | 385.53
266.42 K | 378.39 | –
266.47 K | 377.46 | –
266.63 K | 378.39 | –
267.69 K | – | 387.4
268.31 K | 380.57 | –
268.36 K | 379.63 | –
268.52 K | 380.88 | –
269.56 K | – | 388.95
270.19 K | 382.43 | –
270.25 K | 381.81 | –
270.4 K | 382.74 | –
271.43 K | – | 391.12
272.08 K | 384.6 | –
272.14 K | 383.36 | –
272.29 K | 384.6 | –
273.3 K | – | 393.6
273.97 K | 386.46 | –
274.03 K | 385.53 | –
274.19 K | 386.46 | –
275.16 K | – | 396.09
275.87 K | 388.64 | –
275.92 K | 388.02 | –
276.08 K | 388.33 | –
277.01 K | – | 399.5
277.76 K | 391.12 | –
277.8 K | 390.5 | –
277.97 K | 390.81 | –
278.86 K | – | 403.54
279.64 K | 393.6 | –
279.67 K | 393.29 | –
279.85 K | 393.6 | –
280.7 K | – | 407.57
281.51 K | 396.71 | –
281.53 K | 397.02 | –
281.71 K | 397.02 | –
282.53 K | – | 410.68

Source: the NIST ThermoML archive (doi:10.1021/je700152c)
